The source of these data is US20230265098A1, “ALKYNE QUINAZOLINE DERIVATIVES AS INHIBITORS OF ERBB2” (EnLiven Therapeutics, Inc., priority 2020, published 2023).

Each structure is given as a SMILES string.

One test relates to A431 cells. The test can be described thus: Cell viability assay (CellTiter Glo). The test is classed as cell-based. The note with it: Homo sapiens, A-431; 72 hours; 1500 cells per well, 384-well; DMEM + 10% FBS. The method, then:
(§1) Cells were treated with compounds, and cell viability was measured as a metric of kinase inhibition.
(§2) The Ba/F3 cell line is IL-3-dependent mouse cell line derived from the C3H mouse strain. Ba/F3 cell lines were engineered to express human ERBB2 or EGFR kinases, rendering the cells IL-3 independent. The lines were generated via retroviral transduction utilizing a Moloney murine leukemia virus (MMLV) promoter, and constructs are stably integrated into the cell genome.
(§3) Similarly, Ba/F3 cell lines engineered to express EGFR, ERBB2, or ERBB2 mutants were grown, harvested, counted and seeded at 3000 cells per well in 96-well plates for the data sets shown in Tables B3-B4, and seeded at 300 cells per well in 384-well plates for the data set shown in Table B5. A subset of wells contained media only (low control, “LC”).
(§4) Table B2 provides the growth media and number of cells seeded per well for the each cell line.
(§5) Compounds were dissolved in DMSO and serially diluted. Serially-diluted compound or a DMSO only control (high control, “HC”) was added to the plated cells in each well. […] The final proportion of DMSO never exceeded 0.1%.
(§6) Plates were placed in a 37° C., 5% CO2 incubator for 72 hours. Plates were then removed from the incubator and equilibrated for 15 minutes at room temperature. 40 IA of CellTiter Glo reagent (Promega) was added to measure the relative level of metabolically active cells by quantifying intracellular ATP concentrations. Plates were incubated for 30 minutes at room temperature, and luminescence was measured. Percent viability was normalized to a vehicle control only using the following formula: % viability=100×(LumSample−LumLC) (LumHC−LumLC). Graphical curves were fitted using a nonlinear regression model with a sigmoidal dose response.
(In ATP-based viability assays light output follows the ATP content of the culture.)

For a further test, the system named is BT-474 cells. As to the kind of experiment: Cell viability assay (CellTiter Glo). The note with it: Homo sapiens, 72 hours, 2000 cells per well, 384-well, DMEM + 10% FBS. The test is classed as cell-based. The method, then: as §1, §2, §3, §4, §5, §6
The subject of the next test is MDA-MB-175VII cells. As to the kind of experiment: Cell viability assay (CellTiter Glo). The test is classed as cell-based. The settings on record: Homo sapiens, 72 hours, 2000 cells per well, 384-well, RPMI + 10% FBS. The method, then:
as §1, §2, §3, §4, §5, §6

In a further test the target is ERBB2 (D769H) (Homo sapiens, UniProt P04626, D769H). The test can be described thus: Reaction Biology kinase activity assay (33P-ATP, HotSpot). In kind it is biochemical. The note with it: final enzyme concentration 150 nM; 100 μM 33P-ATP; 20 min preincubation, 2 hours at 25° C. How it is done:
(§7) Inhibition of kinase activity was assessed using a kinase activity assay (Anastassiadis, T. et al. Nat Biotechnol 2011 29: 1039-1045). In particular, substrate (poly Glu-Tyr sodium salt (Sigma Aldrich, cat #P7244)) was freshly prepared in reaction buffer (20 mM Hepes (pH 7.5), 10 mM MgCl2, 1 mM EGTA, 0.02% Brij35, 0.02 mg/ml BSA, 0.1 mM Na3VO4, 2 mM DTT, 1% DMSO). EGFR, ERBB2 or ERBB2 mutant kinases were added to the substrate solution and mixed at the final concentrations in Table B1, below. Compounds were dissolved in 100% DMSO and the resulting solutions were added to the kinase reaction mixture. The kinase reaction mixture was incubated with the compounds for 20 minutes at room temperature. 100 μM ^33P-ATP (Specific activity 10 μCi/μl) was then added to initiate the reaction. This mixture was incubated for 2 hours at 25° C.
(§8) Reactions were spotted onto P81 ion exchange filter paper (Whatman). Unbound phosphate was removed by extensive washing of filters in 0.75% phosphoric acid. Radioactivity was detected using a HotSpot, a proprietary technology of Reaction Biology Corporation (Anastassiadis, T. et al., Nat Biotechnol. 2011 29(11):1039-45). Kinase activity data were expressed as the percentage kinase activity remaining in test samples relative to vehicle only (i.e., DMSO only) control reactions. IC50 values and curve fits were obtained using Prism (GraphPad Software), using a nonlinear regression model with a sigmoidal dose response and are shown in Table B1.

For another test, the target named is ERBB2 (V777_G778insCG) (Homo sapiens, UniProt P04626, INS777CG). The test is described as above. The test is classed as biochemical. The note with it: final enzyme concentration 100 nM; 100 μM 33P-ATP; 20 min preincubation, 2 hours at 25° C. How it is done: as §7, §8
The target of another test is ERBB2 (V777L) (Homo sapiens, UniProt P04626, V777L). Described as above. The settings on record: final enzyme concentration 40 nM; 100 μM 33P-ATP; 20 min preincubation, 2 hours at 25° C. The test is classed as biochemical. How it is done: as §7, §8
The next test deals with ERBB2 (P1170A) (Homo sapiens, UniProt P04626, P1170A). The test is described as above. The note with it: final enzyme concentration 20 nM; 100 μM 33P-ATP; 20 min preincubation, 2 hours at 25° C. In kind it is biochemical. The method, then: as §7, §8
Another test has as its target ERBB2 (D769Y) (Homo sapiens, UniProt P04626, D769Y). The description is as above. The test is classed as biochemical. The settings on record: final enzyme concentration 15 nM; 100 μM 33P-ATP; 20 min preincubation, 2 hours at 25° C. How it is done: as §7, §8
The next test has as its target ERBB2/HER2 (Homo sapiens, UniProt P04626). The description is as above. In kind it is biochemical. The note with it: final enzyme concentration 50 nM; 100 μM 33P-ATP; 20 min preincubation, 2 hours at 25° C. The method, then:
as §7, §8

The target in another test is ERBB2 (R896C) (Homo sapiens, UniProt P04626, R896C). Described as above. The test is classed as biochemical. The note with it: final enzyme concentration 200 nM; 100 μM 33P-ATP; 20 min preincubation, 2 hours at 25° C. The method, then:
as §7, §8

In another test the target is EGFR (Homo sapiens, UniProt P00533). The description is as above. The test is classed as biochemical. The note with it: final enzyme concentration 3 nM; 100 μM 33P-ATP; 20 min preincubation, 2 hours at 25° C. The method, then: as §7, §8
In test [1] the target is T1, Ba/F3 ERBB2-V777_G778insGC (Homo sapiens, UniProt P04626, INS778CG, cells depend on it).
T1 construct: Ba/F3 cell lines were engineered to express human ERBB2 or EGFR kinases, rendering the cells IL-3 independent
The test can be described thus: Cell viability assay (CellTiter Glo). In kind it is cell-based, mouse. The note with it: 72 hours; 3000 cells per well, 96-well plates; read-out: Cell viability IC50, nM, Ba/F3 ERBB2-V777_G778insGC. The essentials: (§9)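 Murine Ba/F3 cells made IL-3-independent by retroviral human EGFR or ERBB2 were seeded at 3000 or 300 cells per well and exposed to serially diluted compound (DMSO ≤0.1%) for 72 hours at 37° C, 5% CO2. CellTiter Glo luminescence was normalised to DMSO and media-only controls and fitted to a sigmoidal dose-response.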

Another test addresses T2, Ba/F3 EGFR wt (Homo sapiens, UniProt P00533).
T2 construct: Ba/F3 cell lines were engineered to express human ERBB2 or EGFR kinases, rendering the cells IL-3 independent
The test can be described thus: Cell viability assay (CellTiter Glo). The test is classed as cell-based, mouse. The note with it: 72 hours; 3000 cells per well, 96-well plates; read-out: Cell viability IC50, nM, Ba/F3 EGFR wt. The essentials:
as §9

T1 sequence (P04626 with tags, fused parts or gaps INS778CG): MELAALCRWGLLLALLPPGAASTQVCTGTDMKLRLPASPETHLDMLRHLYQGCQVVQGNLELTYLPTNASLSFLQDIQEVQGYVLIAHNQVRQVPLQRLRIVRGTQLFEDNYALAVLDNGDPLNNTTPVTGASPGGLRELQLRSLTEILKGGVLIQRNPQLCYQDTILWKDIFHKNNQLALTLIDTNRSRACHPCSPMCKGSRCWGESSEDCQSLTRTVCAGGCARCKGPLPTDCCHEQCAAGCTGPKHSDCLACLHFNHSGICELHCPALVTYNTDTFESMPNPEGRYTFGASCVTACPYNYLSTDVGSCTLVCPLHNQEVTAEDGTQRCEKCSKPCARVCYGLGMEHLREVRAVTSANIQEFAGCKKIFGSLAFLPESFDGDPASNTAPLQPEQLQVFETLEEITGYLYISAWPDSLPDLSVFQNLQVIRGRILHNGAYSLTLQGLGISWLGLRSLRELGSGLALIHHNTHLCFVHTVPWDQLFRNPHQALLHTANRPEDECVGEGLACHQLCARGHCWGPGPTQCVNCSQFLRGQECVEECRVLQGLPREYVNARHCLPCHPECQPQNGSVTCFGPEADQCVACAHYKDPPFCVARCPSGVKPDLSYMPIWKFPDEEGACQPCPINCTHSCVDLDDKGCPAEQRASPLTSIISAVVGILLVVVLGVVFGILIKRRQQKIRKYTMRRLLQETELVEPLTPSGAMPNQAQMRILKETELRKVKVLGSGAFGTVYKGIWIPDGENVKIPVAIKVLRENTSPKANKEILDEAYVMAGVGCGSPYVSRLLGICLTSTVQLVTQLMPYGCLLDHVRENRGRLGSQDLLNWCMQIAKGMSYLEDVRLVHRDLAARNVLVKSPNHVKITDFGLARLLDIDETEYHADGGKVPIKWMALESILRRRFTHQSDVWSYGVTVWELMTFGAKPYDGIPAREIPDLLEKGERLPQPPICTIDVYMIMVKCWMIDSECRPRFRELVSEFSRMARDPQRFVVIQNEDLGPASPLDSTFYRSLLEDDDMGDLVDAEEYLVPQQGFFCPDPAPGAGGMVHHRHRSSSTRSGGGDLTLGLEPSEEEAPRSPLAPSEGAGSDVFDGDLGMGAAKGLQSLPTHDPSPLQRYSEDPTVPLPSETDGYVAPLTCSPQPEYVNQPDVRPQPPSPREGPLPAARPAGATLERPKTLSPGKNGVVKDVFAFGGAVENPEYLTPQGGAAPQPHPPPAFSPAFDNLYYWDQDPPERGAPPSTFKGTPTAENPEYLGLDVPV
Chain of ERBB2 (D769Y) (P04626 23-1255 D769Y): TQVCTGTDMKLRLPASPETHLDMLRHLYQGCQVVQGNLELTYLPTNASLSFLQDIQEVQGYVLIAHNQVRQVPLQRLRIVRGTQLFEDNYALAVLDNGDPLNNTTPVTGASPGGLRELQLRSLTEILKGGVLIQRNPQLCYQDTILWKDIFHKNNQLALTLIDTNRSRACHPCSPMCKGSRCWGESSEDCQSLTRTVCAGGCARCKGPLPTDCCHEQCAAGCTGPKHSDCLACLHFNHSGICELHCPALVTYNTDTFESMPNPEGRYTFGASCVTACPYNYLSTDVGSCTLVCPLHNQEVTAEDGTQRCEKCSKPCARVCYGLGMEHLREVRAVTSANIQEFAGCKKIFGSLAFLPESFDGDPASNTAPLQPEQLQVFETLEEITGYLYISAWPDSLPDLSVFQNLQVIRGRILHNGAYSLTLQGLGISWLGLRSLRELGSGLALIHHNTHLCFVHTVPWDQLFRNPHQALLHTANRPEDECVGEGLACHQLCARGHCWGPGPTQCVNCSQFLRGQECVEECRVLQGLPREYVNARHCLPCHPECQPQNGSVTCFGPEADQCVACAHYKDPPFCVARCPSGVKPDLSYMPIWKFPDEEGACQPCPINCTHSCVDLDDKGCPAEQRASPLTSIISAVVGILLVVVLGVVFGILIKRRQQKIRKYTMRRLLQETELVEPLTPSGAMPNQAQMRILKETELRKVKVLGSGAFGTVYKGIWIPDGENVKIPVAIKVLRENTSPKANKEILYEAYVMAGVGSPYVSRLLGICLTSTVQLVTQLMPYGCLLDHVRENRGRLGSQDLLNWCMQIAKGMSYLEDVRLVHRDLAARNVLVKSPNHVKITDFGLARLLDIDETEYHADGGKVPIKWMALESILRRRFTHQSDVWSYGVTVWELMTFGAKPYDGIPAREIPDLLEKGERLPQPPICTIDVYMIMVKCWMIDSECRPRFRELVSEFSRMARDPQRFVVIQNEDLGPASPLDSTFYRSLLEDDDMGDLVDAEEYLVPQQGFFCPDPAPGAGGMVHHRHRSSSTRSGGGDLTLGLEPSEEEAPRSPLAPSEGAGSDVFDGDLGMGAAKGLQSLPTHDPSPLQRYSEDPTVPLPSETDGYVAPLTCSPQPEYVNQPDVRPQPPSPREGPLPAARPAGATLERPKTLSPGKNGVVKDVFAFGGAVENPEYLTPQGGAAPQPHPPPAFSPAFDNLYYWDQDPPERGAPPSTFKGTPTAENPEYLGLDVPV
Chain of EGFR (P00533 25-1210): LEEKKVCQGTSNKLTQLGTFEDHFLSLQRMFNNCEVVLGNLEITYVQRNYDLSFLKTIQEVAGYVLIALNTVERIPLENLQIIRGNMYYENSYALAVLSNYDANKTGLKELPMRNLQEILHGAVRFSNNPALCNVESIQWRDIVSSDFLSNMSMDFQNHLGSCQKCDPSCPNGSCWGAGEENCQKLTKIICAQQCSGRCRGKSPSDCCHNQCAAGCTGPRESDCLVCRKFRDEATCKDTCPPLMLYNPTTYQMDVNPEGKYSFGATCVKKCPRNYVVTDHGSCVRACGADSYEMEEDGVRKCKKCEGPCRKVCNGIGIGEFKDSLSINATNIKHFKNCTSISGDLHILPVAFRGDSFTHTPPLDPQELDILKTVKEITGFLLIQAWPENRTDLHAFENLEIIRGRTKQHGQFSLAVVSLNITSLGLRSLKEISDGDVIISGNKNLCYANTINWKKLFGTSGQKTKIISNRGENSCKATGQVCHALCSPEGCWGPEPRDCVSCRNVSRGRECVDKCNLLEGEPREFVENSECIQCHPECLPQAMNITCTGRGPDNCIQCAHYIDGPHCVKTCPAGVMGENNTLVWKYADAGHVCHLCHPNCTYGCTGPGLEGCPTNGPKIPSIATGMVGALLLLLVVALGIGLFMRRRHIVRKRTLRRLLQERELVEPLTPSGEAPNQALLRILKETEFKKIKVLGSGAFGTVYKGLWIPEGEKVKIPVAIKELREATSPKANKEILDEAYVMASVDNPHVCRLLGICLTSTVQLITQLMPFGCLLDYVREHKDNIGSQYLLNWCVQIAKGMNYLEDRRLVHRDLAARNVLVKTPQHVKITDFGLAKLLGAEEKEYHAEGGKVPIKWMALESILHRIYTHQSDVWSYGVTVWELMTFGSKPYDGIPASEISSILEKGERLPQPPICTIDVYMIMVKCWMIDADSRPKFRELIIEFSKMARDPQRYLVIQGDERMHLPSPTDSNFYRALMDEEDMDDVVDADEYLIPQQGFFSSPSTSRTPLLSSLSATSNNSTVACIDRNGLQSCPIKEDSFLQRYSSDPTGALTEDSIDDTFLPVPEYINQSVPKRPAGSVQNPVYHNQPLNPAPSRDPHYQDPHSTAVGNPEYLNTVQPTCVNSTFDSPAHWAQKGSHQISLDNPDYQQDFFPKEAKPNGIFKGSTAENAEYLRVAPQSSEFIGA
Chain of ERBB2 (P1170A) (P04626 23-1255 P1170A): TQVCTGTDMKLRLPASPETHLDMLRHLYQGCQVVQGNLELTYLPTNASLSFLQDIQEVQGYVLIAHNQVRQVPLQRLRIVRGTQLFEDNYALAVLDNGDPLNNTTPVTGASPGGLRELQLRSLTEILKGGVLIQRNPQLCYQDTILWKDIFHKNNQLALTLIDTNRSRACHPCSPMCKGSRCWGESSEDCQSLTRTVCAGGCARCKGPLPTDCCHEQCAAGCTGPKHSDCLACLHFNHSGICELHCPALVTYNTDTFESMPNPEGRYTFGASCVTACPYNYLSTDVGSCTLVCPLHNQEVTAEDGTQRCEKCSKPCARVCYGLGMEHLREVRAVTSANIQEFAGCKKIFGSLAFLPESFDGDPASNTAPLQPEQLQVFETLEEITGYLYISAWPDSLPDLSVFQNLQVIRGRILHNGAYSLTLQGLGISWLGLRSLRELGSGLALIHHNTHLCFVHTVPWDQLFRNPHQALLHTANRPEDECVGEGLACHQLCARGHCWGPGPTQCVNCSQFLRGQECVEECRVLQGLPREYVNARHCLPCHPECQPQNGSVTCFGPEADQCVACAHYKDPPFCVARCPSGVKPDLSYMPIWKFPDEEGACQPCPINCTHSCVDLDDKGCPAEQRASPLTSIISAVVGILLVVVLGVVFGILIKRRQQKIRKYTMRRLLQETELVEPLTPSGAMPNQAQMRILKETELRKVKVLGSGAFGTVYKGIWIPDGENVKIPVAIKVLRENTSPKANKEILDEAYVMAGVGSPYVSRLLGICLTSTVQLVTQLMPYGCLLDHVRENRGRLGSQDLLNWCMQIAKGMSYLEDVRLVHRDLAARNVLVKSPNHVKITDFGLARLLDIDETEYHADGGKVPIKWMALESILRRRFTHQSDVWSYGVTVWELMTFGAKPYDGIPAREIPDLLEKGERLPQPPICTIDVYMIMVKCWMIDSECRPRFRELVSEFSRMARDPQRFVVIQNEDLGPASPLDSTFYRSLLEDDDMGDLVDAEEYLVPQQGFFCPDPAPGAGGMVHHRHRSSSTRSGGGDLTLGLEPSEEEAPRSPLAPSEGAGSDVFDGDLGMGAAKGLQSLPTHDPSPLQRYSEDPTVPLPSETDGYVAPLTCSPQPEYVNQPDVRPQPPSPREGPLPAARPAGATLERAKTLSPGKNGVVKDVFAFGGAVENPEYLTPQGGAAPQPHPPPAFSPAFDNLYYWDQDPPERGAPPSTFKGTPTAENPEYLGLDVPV

On to `Cc1cc(Nc2ncnc3ccc(NC4=NC(C)(C)CO4)cc23)ccc1Oc1ccn2ncnc2c1` [Tucatinib, tucatinib, reference compound], for which the IC50 in the test with A431 cells was more than 10000 nM; with BT-474 cells it was 41.8 nM; in the test on MDA-MB-175VII cells it was 89 nM; against ERBB2 (D769H), 5 nM; at ERBB2 (V777_G778insCG), 4.43 nM; against ERBB2 (V777L), 4.3 nM. Moreover, the IC50 was 3.99 nM on ERBB2 (P1170A); 13.7 nM against ERBB2 (D769Y); 3.07 nM against ERBB2/HER2; 2.95 nM at ERBB2 (R896C); 954 nM on EGFR. For the same compound, the GI50 in [1] is 12.5 nM; at Ba/F3 EGFR wt, more than 10000 nM.
Regarding `CC#CC(=O)Nc1cc2c(Nc3ccc(Oc4ccn5ncnc5c4)c(C)c3)ncnc2cc1OCCN(C)C` [Compound 150, N-[7-[2-(dimethylamino)ethoxy]-4-[(3-methyl-4-[[1,2,4]triazolo[1,5-a]pyridin-7-yloxy]phenyl)amino]quinazolin-6-yl]but-2-ynamide], the GI50 in [1] was determined as 3.01 nM.
With `CC#CC(=O)Nc1ccc2ncnc(Nc3ccc(Oc4ccn5ncnc5c4)c(C)c3)c2c1` [Compound 1, N-[4-[(3-methyl-4-[[1,2,4]triazolo[1,5-a]pyridin-7-yloxy]phenyl)amino]quinazolin-6-yl]but-2-ynamide], the IC50 in the test on A431 cells turned out to be 1730 nM; in the test with BT-474 cells it was 3.89 nM; in the test on MDA-MB-175VII cells, 9 nM; at ERBB2 (D769H) it was 1.04 nM; on ERBB2 (V777_G778insCG), 0.97 nM; against ERBB2 (V777L), 1.38 nM. Moreover, the IC50 on ERBB2 (P1170A) was 0.68 nM; against ERBB2 (D769Y) it was 1.56 nM; on ERBB2/HER2 it was 0.49 nM; on ERBB2 (R896C), 2.29 nM; on EGFR, 58 nM. The GI50 in test [1] is less than 1 nM; at Ba/F3 EGFR wt, 2750 nM.

In general, IC50 refers to the midpoint of a concentration-inhibition curve.
